Results reported in patent US5391540A, “Substituted pyridine compounds” (Rohm and Haas Company, priority 1993, dated 1995).

What was measured:
Assay in all cases: Pre-emergent herbicidal activity (Table A)
Assay type in all cases: in vivo
[1] = test system: Barnyardgrass; details: Echinochloa crus-galli, pre-emergence, Bygr, 11.2 kg/ha, 10-14 days, read-out: herbicidal rating (% inhibition)
Experimental: (§1) The herbicidal ratings used in Tables A and B were assigned according to a scale based on the percent inhibition of each plant species. The herbicide rating symbols in Tables A and B are defined as follows: […]
(§2) One set of pre-emergent tests was conducted as follows:
(§3) Topsoil was placed in a pan and compacted to a depth of 0.95 to 1.27 cm. from the top of the pan. A predetermined number of seeds of each of several monocotyledonous and dicotyledonous annual plant species and/or vegetative propagules of various perennial plant species were placed on top of the soil. The soil required to level fill a pan after seeding or adding vegetative propagules was weighed into another pan. A known amount of the test compound dissolved or suspended in an organic solvent or water and applied in acetone or water as a carrier was thoroughly mixed with this cover soil, and the herbicide/soil mixture was used as a cover layer for the previously prepared pan.
(§4) The plant species usually regarded as weeds which were utilized in one set of pre-emergent activity tests, the data for which are shown in Table A, are identified by letter headings printed diagonally above the columns according to the following legend: […]

[2] = test system: Canada thistle; details: Cirsium arvense, pre-emergence, Cath, 11.2 kg/ha, 10-14 days, read-out: herbicidal rating (% inhibition)
Experimental: as §1, §2, §3, §4

[3] = test system: Cocklebur; details: Xanthium strumarium, pre-emergence, Cobu, 11.2 kg/ha, 10-14 days, read-out: herbicidal rating (% inhibition)
Experimental: as §1, §2, §3, §4

[4] = test system: Common Lambsquarters; details: Chenopodium album, pre-emergence, Colq, 11.2 kg/ha, 10-14 days, read-out: herbicidal rating (% inhibition)
Experimental: as §1, §2, §3, §4

[5] = test system: Downy Brome; details: Bromus tectorum, pre-emergence, Dobr, 11.2 kg/ha, 10-14 days, read-out: herbicidal rating (% inhibition)
Experimental: as §1, §2, §3, §4

[6] = test system: Morningglory; details: Ipomoea, pre-emergence, Mogl, 11.2 kg/ha, 10-14 days, read-out: herbicidal rating (% inhibition)
Experimental: as §1, §2, §3, §4

[7] = test system: Pennsylvania Smartweed; details: pre-emergence, Pesw, 11.2 kg/ha, 10-14 days, read-out: herbicidal rating (% inhibition)
Experimental: as §1, §2, §3, §4

[8] = test system: Quackgrass; details: pre-emergence, Rhqg, 11.2 kg/ha, 10-14 days, read-out: herbicidal rating (% inhibition)
Experimental: as §1, §2, §3, §4

[9] = test system: Rhizome Johnsongrass; details: Sorghum halepense, pre-emergence, Rhjg, 11.2 kg/ha, 10-14 days, read-out: herbicidal rating (% inhibition)
Experimental: as §1, §2, §3, §4

[10] = test system: Velvetleaf; details: Abutilon theophrasti, pre-emergence, Vele, 11.2 kg/ha, 10-14 days, read-out: herbicidal rating (% inhibition)
Experimental: as §1, §2, §3, §4

[11] = test system: Yellow Nutsedge; details: Cyperus, pre-emergence, Yens, 11.2 kg/ha, 10-14 days, read-out: herbicidal rating (% inhibition)
Experimental: as §1, §2, §3, §4

COC(=O)c1c(C(F)(F)F)nc(OC)c(C#N)c1CC(C)C [Compound 20, 3-pyridinecarboxylic acid, 5-cyano-6-methoxy-4-(2-methylpropyl)-2-(trifluoromethyl)-, methyl ester]
inhibition at 11200 g/ha [1]: 75 to 100% | inhibition at 11200 g/ha [2]: 0 to 24% | inhibition at 11200 g/ha [3]: 0 to 24% | inhibition at 11200 g/ha [4]: 75 to 100% | inhibition at 11200 g/ha [5]: 75 to 100% | inhibition at 11200 g/ha [6]: 50 to 74% | inhibition at 11200 g/ha [7]: 25 to 49% | inhibition at 11200 g/ha [8]: 75 to 100% | inhibition at 11200 g/ha [9]: 75 to 100% | inhibition at 11200 g/ha [10]: 0 to 24% | inhibition at 11200 g/ha [11]: 0 to 24%

COC(=O)c1c(OC)nc(C(F)(F)F)c(C(=O)OC)c1C1CCC1 [Compound 48, 3,5-pyridinedicarboxylic acid, 4-cyclobuty1-2-methoxy-6-(trifluoromethyl)-, dimethyl ester]
inhibition at 11200 g/ha [1]: 75 to 100% | inhibition at 11200 g/ha [2]: 75 to 100% | inhibition at 11200 g/ha [3]: 75 to 100% | inhibition at 11200 g/ha [4]: 75 to 100% | inhibition at 11200 g/ha [5]: 75 to 100% | inhibition at 11200 g/ha [6]: 75 to 100% | inhibition at 11200 g/ha [7]: 75 to 100% | inhibition at 11200 g/ha [8]: 75 to 100% | inhibition at 11200 g/ha [9]: 75 to 100% | inhibition at 11200 g/ha [10]: 75 to 100% | inhibition at 11200 g/ha [11]: 75 to 100%

COC(=O)c1c(OC)nc(C(F)(F)F)c(C(=O)N2CCSC2)c1CC(C)C [Compound 71, 3-pyridinecarboxylic acid, 2-methoxy-4-(2-methylpropyl)-5-(3-thiazolidinylcarbonyl)-6-(trifluoromethyl)-, methyl ester]
inhibition at 11200 g/ha [1]: 75 to 100% | inhibition at 11200 g/ha [2]: 25 to 49% | inhibition at 11200 g/ha [3]: 0 to 24% | inhibition at 11200 g/ha [4]: 75 to 100% | inhibition at 11200 g/ha [5]: 75 to 100% | inhibition at 11200 g/ha [6]: 50 to 74% | inhibition at 11200 g/ha [7]: 50 to 74% | inhibition at 11200 g/ha [8]: 50 to 74% | inhibition at 11200 g/ha [9]: 0 to 24% | inhibition at 11200 g/ha [10]: 25 to 49% | inhibition at 11200 g/ha [11]: 0 to 24%

COC=Nc1c(OC)nc(C(F)(F)F)c(C(=O)OC)c1CC(C)C [Compound 56, 3-pyridinecarboxylic acid, 6-methoxy-5-[(methoxymethylene)amino]-4-(2-methylpropyl)-2-(trifluoromethyl)-, methyl ester]
inhibition at 11200 g/ha [1]: 75 to 100% | inhibition at 11200 g/ha [2]: 0 to 24% | inhibition at 11200 g/ha [3]: 0 to 24% | inhibition at 11200 g/ha [4]: 75 to 100% | inhibition at 11200 g/ha [5]: 75 to 100% | inhibition at 11200 g/ha [6]: 0 to 24% | inhibition at 11200 g/ha [7]: 0 to 24% | inhibition at 11200 g/ha [8]: 0 to 24% | inhibition at 11200 g/ha [9]: 0 to 24% | inhibition at 11200 g/ha [10]: 0 to 24% | inhibition at 11200 g/ha [11]: 0 to 24%

COC(=O)c1c(OC)nc(C(F)(F)F)c(C(=O)N2CCSCC2)c1CC(C)C [Compound 70, 3-pyridinecarboxylic acid, 2-methoxy-4-(2-methylpropyl)-5-(4-thiomorpholinylcarbonyl)-6-(trifluoromethyl)-, methyl ester]
inhibition at 11200 g/ha [1]: 75 to 100% | inhibition at 11200 g/ha [2]: 50 to 74% | inhibition at 11200 g/ha [3]: 0 to 24% | inhibition at 11200 g/ha [4]: 75 to 100% | inhibition at 11200 g/ha [5]: 50 to 74% | inhibition at 11200 g/ha [6]: 50 to 74% | inhibition at 11200 g/ha [7]: 0 to 24% | inhibition at 11200 g/ha [8]: 50 to 74% | inhibition at 11200 g/ha [9]: 0 to 24% | inhibition at 11200 g/ha [10]: 0 to 24% | inhibition at 11200 g/ha [11]: 25 to 49%

COC(=O)c1c(OC)nc(C(F)(F)F)c(C(=O)n2cccn2)c1C1CCC1 [Compound 52, 3-pyridinecarboxylic acid, 4-cyclobutyl-2-methoxy-5-(1H-pyrazo1-1-ylcarbonyl)-6-(trifluoromethyl)-, methyl ester]
inhibition at 11200 g/ha [1]: 75 to 100% | inhibition at 11200 g/ha [2]: 75 to 100% | inhibition at 11200 g/ha [3]: 75 to 100% | inhibition at 11200 g/ha [4]: 75 to 100% | inhibition at 11200 g/ha [5]: 75 to 100% | inhibition at 11200 g/ha [6]: 75 to 100% | inhibition at 11200 g/ha [7]: 75 to 100% | inhibition at 11200 g/ha [8]: 75 to 100% | inhibition at 11200 g/ha [9]: 0 to 24% | inhibition at 11200 g/ha [10]: 75 to 100% | inhibition at 11200 g/ha [11]: 75 to 100%
